The record followed here is publication PMC5166496 (International Journal of Biological Sciences, 2016).

This experiment deals with T1, SIRT1 (Homo sapiens, UniProt Q96EB6).
T1 sequence (Q96EB6 2-747): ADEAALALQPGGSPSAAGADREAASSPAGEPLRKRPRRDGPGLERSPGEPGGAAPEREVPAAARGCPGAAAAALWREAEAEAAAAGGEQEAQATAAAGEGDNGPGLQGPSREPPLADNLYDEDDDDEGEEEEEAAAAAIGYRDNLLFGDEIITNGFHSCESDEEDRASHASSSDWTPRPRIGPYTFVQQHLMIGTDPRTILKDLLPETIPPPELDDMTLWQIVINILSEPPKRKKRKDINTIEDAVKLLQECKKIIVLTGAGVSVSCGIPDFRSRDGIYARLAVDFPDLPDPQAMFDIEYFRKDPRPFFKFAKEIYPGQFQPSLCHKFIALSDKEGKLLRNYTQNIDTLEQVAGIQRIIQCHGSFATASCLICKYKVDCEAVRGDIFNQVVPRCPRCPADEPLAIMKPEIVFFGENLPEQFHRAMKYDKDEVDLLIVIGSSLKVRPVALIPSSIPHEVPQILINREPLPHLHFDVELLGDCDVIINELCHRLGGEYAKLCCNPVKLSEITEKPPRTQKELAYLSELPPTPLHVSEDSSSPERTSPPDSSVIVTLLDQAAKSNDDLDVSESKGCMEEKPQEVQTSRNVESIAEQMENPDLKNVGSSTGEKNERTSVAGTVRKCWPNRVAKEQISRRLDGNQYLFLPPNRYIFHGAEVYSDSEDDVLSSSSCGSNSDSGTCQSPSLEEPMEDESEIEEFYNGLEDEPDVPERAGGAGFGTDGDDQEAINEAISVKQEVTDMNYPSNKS
The experiment can be described thus: SensoLyte […] fluorimetric SIRT1 deacetylase activity assay kit. Type of experiment: biochemical.

What is called IC50 is the point on the concentration scale where inhibition reaches its midpoint.

In turn, `CC(C)(C)c1cc(C=C2C(=O)NC(=S)NC2=O)cc(C(C)(C)C)c1O` [MHY2256, 5-(3,5-Di-tert-butyl-4-hydroxybenzylidene)-2-thioxodihydropyrimidine-4,6(1H,5H)-dione] displayed an IC50 of 270 µM.
